From patent US7355074B2, “Compounds having aromatic rings and side-chain amide-functionality and a method for transporting monovalent anions across biological membranes using the same” (The University of Maryland, priority 2003, dated 2008)
Marks after values point to notes of the source that are not given here.

Experiments:
[1] = sodium picrate extraction in CDCl3 monitored by 1H NMR; type: binding
Description: FIG. 9 ^1H NMR spectrum (400 MHz, CDCl3, 22° C.) of (A) calixarene octabutylamide (5 mM) in CDCl3, (B) the same compound after addition of 1 equiv. of NaPic. (C) the same compound after addition of 2 equiv. of NaPic.
The secondary amide NH and the core aromatic ring framework, in this case the calix[4]arene framework, are essential for the HCl transport activity of 2. Calix[4]arene octabutylamide 3 was used as a negative control for tetrabutylamide 2, as the lack of amide NH protons in 3 would preclude Cl^− binding. Instead, 3 should be a cation ionophore, much like tetrakis(diethylcarbamoylmethoxy)-p-tert-butylcalix[4]arene-1,3-alt that coordinates cations in the solid-state and solution. To confirm that 3 binds Na^+, sodium picrate extraction in CDCl3 was monitored by ^1H NMR spectroscopy. Complexation of the salt by 3 was evident. Two distinct complexes were formed, corresponding to a 1:1 and a 2:1 Na^+:3 stoichiometry. The 1:1 complex was generated by adding 1 equiv of solid sodium picrate to a solution of 3. Binding this Na^+ led to a symmetry loss for 3, indicated by doubling of the ^1H NMR peaks. […] In contrast, sodium picrate extraction by calix[4]arene tetrabutylamide 2 was not detected by ^1H NMR spectroscopy.

[2] = pH-assisted fluorimetric transport assay with calixarene amides (HPTS-loaded liposomes); type: biochemical; conditions: for ion transport in sulfate buffers: sodium sulfate-filled LUVs in isotonic solution, up to 50 μM
Description: The ability of 1 and 2 to mediate ion flux across a lipid bilayer was studied fluorimetrically. A solution of 1 or 2 was added to a suspension of EYPC large unilamellar vesicles (LUVs) containing the pH-sensitive dye pyranine. An NaOH solution was added to the extravesicular buffer to create a gradient of approximately one pH unit. The resulting electrostatic potential, caused by proton efflux from the liposomes, can be compensated by cation influx or anion efflux, as mediated by the exogenous ligand. Ion transport across the membrane was signaled by the increase in relative fluorescence that accompanied the rise in intravesicular pH.
Liposome Preparation. EYPC HPTS-Containing LUVs, egg yolk 1-α-phosphatidylcholine (EYPC, 60 mg, […]) was dissolved in a CHCl3MeOH mixture, the solution was evaporated under reduced pressure, and the resulting thin film was dried under high vacuum for 2 h. The lipid film was hydrated in 1.2 mL of phosphate buffer (10 mM sodium phosphage, pH=6.4, 75-100 mM MX, M=Na^+, K^+, Cs^+, X=[…], SO4^2−) containing 10 μM HPTS (pyranine 8-hydroxypyrene-1,3,6-trisulfonic acid trisodium salt) for 2 h. The LUV suspension (1 mL) was submitted to high-pressure extrusion at room temperature (2) extrusions through a 0.1 μM polycarbonate membrane afforded LUVs with a diameter of 100 nm). The LUV suspension was separated from extravesicular dye by size exclusion chromatography (SEC) stationary phase: Sephadex G-10, mobile phase:phosphate buffer) and diluted with the same phosphate buffer to give a stock solution with a lipid concentration of 11 mM (assuming 100% of lipid was incorporated into liposomes).
Fluorimetric Transport Assays. pH-Assisted Transport Assays. Typically, 100 μL of HPTS-loaded vesicles (stock solution) was suspended in 1.85 mL of the corresponding buffer and placed into a fluorimetric cell. HPTS emission at 510 nm was monitored with excitation wavelengths at 403 and 460 nm simultaneously. During the experiment, 20 μL of a 0-10 mM THF solution of the compound of interest was added through an injection port, followed by injection of 21 μL of 0.5 M aqueous NaOH. Addition of the NaOH caused a pH increase of approximately 1 pH unit in the extravesicular buffer. Maximal changes in dye emission were obtained at the end of each experiment by lysis of the liposomes with detergent (40 μL of 5% aqueous Triton x100). The final transport trace was obtained as a ratio of the emission intensities monitored at 460 and 403 nm and normalized to 100% of transport.

CCCCNC(=O)COc1c2cccc1Cc1cccc(c1OCC(=O)NCCCC)Cc1cccc(c1OCC(=O)NCCCC)Cc1cccc(c1OCC(=O)NCCCC)C2 [calix[4]arene tetrabutylamide 2, Calix[4]arene tetrabutylamide]
sodium picrate extraction [1]: not detected | transport activity when buffer changed from NaCl to Na2SO4 [2]: essentially complete loss of transport activity | Initial Pseudo-first Order Transport Rate Constants, Na2SO4 ([2]; 5 μM, 100 mM Na2SO4 inside pH 6.4 and outside pH 7.4, not corrected for unmediated exchange): 1.1^b,d ×10^−3 s^−1 | Initial Pseudo-first Order Transport Rate Constants, CsCl ([2]; 5 μM, 100 mM NaCl inside pH 6.4, 100 mM CsCl outside pH 7.4, not corrected for unmediated exchange): 7.7^b,c ×10^−3 s^−1 | Initial Pseudo-first Order Transport Rate Constants, KCl ([2]; 5 μM, 100 mM NaCl inside pH 6.4, 100 mM KCl outside pH 7.4, not corrected for unmediated exchange): 6.4^b,c ×10^−3 s^−1 | Initial Pseudo-first Order Transport Rate Constants, NaCl ([2]; 5 μM, 100 mM NaCl inside pH 6.4, 100 mM NaCl outside pH 7.4, not corrected for unmediated exchange): 6.8^b,c ×10^−3 s^−1 | cation selectivity of ion transport ([2]; buffers containing Na, K or Cs): nonselective toward the cation | anion transport selectivity ([2]; chloride versus sulfate buffers): pronounced Cl^− over HSO4^− transport selectivity | transport activity ([2]; extravesicular Na, K or Cs chloride, ligand:lipid ratio of 1:100): rapid exchange of intra-and extravesicular electrolytes | ion transport in sulfate buffers [2]: not mediated | ion transport in sulfate buffers ([2]; listed as calix[4]arene tetrabutylamide): No significant transport
